Assay results from patent publication US12391726B2, “Ursolic acid morpholine salt” (EMMYON, INC., priority 2017, dated 2025).
Counter-ions that a name gives are not always drawn. Like-named read-outs stand apart in the source and are kept apart here. Marks after values point to notes of the source that are not given here.

Legend:
male C57BL/6 mice [1] = conditions: 0.059% in standard chow, 7 weeks
Procedure: Weight-matched cohorts of 8-week old male C57BL/6 mice were randomized to receive ad libitum access to either standard chow (control) or standard chow supplemented with 0.059% ursolic acid-morpholine salt. After mice had consumed these diets for 7 weeks, in vivo, grip strength was measured, mice were weighed, body composition was assessed by NMR, and quadriceps muscles were dissected for histological analysis of skeletal muscle fiber cross-sectional diameter.

male C57BL/6 mice [2] = conditions: quadriceps, 0.059% in standard chow, 7 weeks, vs control
Description: (§1) Weight-matched cohorts of 8-week old male C57BL/6 mice were randomized to receive ad libitum access to either standard chow (control) or standard chow supplemented with 0.059% ursolic acid-morpholine salt. After mice had consumed these diets for 7 weeks, quadriceps muscles were dissected, fixed, cross-sectioned, stained with hematoxylin and eosin, and subjected to photomicrography. FIG. 1A is a photomicrograph of quadriceps skeletal muscle fibers from the control group. FIG. 1B is a photomicrograph of quadriceps skeletal muscle fibers from the ursolic acid-morpholine salt group.

male C57BL/6 mice [3] = experiment: Comparison with a maximally effective dose of ursolic acid (high-fat diet, 7 weeks, glucose tolerance test); type: in vivo; conditions: 0.059% morpholine salt vs 0.20% w/w ursolic acid
Procedure: After 7 weeks on the diets, mice were fasted for 6 hours and were then subjected to glucose tolerance tests.

male C57BL/6 mice [4] = conditions: 0.059% in high-fat chow, 8 weeks, 6 h fast; control 37,122±1,339; P<0.01
Procedure: Weight-matched cohorts of 8-week old male C57BL/6 mice were randomized to receive ad libitum access to either high-fat chow (control) or high-fat chow supplemented with 0.059% ursolic acid-morpholine salt. After mice had consumed the diets for 8 weeks, mice were fasted for 6 hours and then subjected to glucose tolerance testing. Results are shown in FIG. 3, which is a graph depicting glucose tolerance testing results. Data are means±SEM from 15 mice per cohort.

male C57BL/6 mice [5] = experiment: Direct comparison to molar-matched ursolic acid in obesity-induced glucose intolerance (high-fat chow, 7 weeks); type: in vivo; conditions: 6 h fast, 0.050% ursolic acid or 0.059% morpholine salt, P<0.01
Procedure: Weight-matched cohorts of 8-week old male C57BL/6 mice were randomized to receive ad libitum access to either high-fat chow supplemented with 0.050% ursolic acid, or high-fat chow supplemented with a molar-matched dose of ursolic acid-morpholine salt (0.059%). After mice had consumed the diets for 7 weeks, mice were fasted for 6 hours and then subjected to glucose tolerance testing. […] Data are means±SEM from 10 mice per cohort.

C2C12 myotubes = experiment: Total cellular protein in cultured C2C12 myotubes (in vitro model of skeletal muscle); type: cell-based; conditions: 48 hours, 10% FBS
Procedure: A direct, side-by-side comparison of ursolic acid and ursolic acid-morpholine salt was performed in an in vitro model of skeletal muscle. C2C12 myoblasts were cultured and fully differentiated into post-mitotic skeletal myotubes, then incubated for 48 hours with 10% fetal bovine serum (FBS) plus the indicated concentrations of ursolic acid or ursolic acid-morpholine salt. Myotubes were then harvested for assessment of total cellular protein, which increases as myotubes undergo hypertrophy. (See Dyle et al., Systems-based discovery of tomatidine as a natural small molecule inhibitor of skeletal muscle atrophy, Journal of Biological Chemistry 289, (2014) 14913-14924.) Total protein in each sample was normalized to the amount of in vehicle-treated myotubes. […] Results are shown in FIG. 6, which is a graph depicting results from the direct, side-by-side comparison of ursolic acid and ursolic acid-morpholine salt in the cultured C2C12 myotubes in vitro model of skeletal muscle.

diet-induced obese mice = experiment: Obesity and blood glucose testing (high-fat chow, 9 weeks); type: in vivo; conditions: 0.059% in high-fat chow
Description: Weight-matched cohorts of 8-week old male C57BL/6 mice were randomized to receive ad libitum access to either high-fat chow (control) or high-fat chow supplemented with 0.059% ursolic acid-morpholine salt. Just prior to starting these diets, mice were weighed and subjected to body composition analysis by NMR. After mice had consumed the diets for 9 weeks, body weight and body composition were re-assessed, retroperitoneal and epididymal fat pads were dissected and weighed, and non-fasting blood glucose was measured.

male C57BL/6 mice [6] = experiment: Comparative grip strength testing for ursolic acid and salts thereof (standard chow, 6 weeks); type: in vivo
Description: Weight-matched cohorts of 8-week old male C57BL/6 mice were randomized to receive ad libitum access to either standard chow (control) or standard chow supplemented with either 0.050% ursolic acid, 0.200% ursolic acid, or one of the indicated ursolic acid salts: ursolic acid-ethanolamine salt; ursolic acid-tris(hydroxymethyl)aminomethane salt, hereinafter referred to as ursolic acid-“tris” salt; ursolic acid-lysine salt; ursolic acid-diethanolamine salt; ursolic acid-morpholine salt; or ursolic acid-piperazine salt. The ursolic acid-diethanolamine salt and ursolic acid-morpholine salt were prepared as described above. Ursolic acid was commercially obtained, and was used as a starting material to make the other ursolic acid salts according to techniques analogous to those above and known in the art. The doses of ursolic acid salts were molar-matched to either 0.050% ursolic acid (i.e. 0.057% ursolic acid-ethanolamine salt, 0.063% ursolic acid-tris salt, 0.066% ursolic acid-lysine salt, 0.059% ursolic acid-morpholine salt, and 0.059% ursolic acid-piperazine salt) or to 0.048% ursolic acid (i.e. 0.060% ursolic acid-diethanolamine salt). After mice had consumed these diets for 6 weeks, in vivo grip strength was measured.

male C57BL/6 mice [7] = conditions: retroperitoneal fat pads, 0.059% in standard chow, 7 weeks, vs control
Description: as §1, with “retroperitoneal fat pads” for “quadriceps muscles”, “2A” for “1A”, “adipocytes from retroperitoneal fat pads” for “quadriceps skeletal muscle fibers”, “2B” for “1B”

male C57BL/6 mice [8] = conditions: high-fat chow, 8 weeks, 0.500% Ursolic Acid or 0.059% morpholine salt
Description: Weight-matched cohorts of 8-week old male C57BL/6 mice were randomized to receive ad libitum access to either high-fat chow (control), high-fat chow supplemented with 0.050% ursolic acid, or high-fat chow supplemented with a molar-matched dose of ursolic acid-morpholine salt (0.059%). Just prior to starting these diets, mice were weighed and subjected to body composition analysis by NMR. After mice had consumed the diets for 8 weeks, body weight and body composition were re-assessed, retroperitoneal and epididymal fat pads were dissected and weighed, and skeletal muscles (tibialis anterior, gastrocnemius, soleus, quadriceps and triceps) were dissected and weighed. In each mouse, the total dissected skeletal muscle weight (combined weight of bilateral tibialis anterior, gastrocnemius, soleus, quadriceps and triceps muscles) was normalized to the final body weight. Data are means±SEM from 10 mice per cohort.

SMILES: C[C@H]1[C@H](C)CC[C@]2(C(=O)O)CC[C@]3(C)C(=CC[C@@H]4[C@@]5(C)CC[C@H](O)C(C)(C)[C@@H]5CC[C@]43C)[C@H]12 [Ursolic Acid-Morpholine Salt, ursolic acid morpholine salt]
- Final Body Wt (male C57BL/6 mice [1]): 34.6 ± 1.0 g
- Final Grip Strength (male C57BL/6 mice [1]): 181.9 ± 2.4 g
- Final % Fat (male C57BL/6 mice [1]; NMR): 21.4 ± 2.9 %
- Final % Lean (male C57BL/6 mice [1]; NMR): 61.0 ± 2.2 %
- Final Fat Mass (male C57BL/6 mice [1]; NMR): 7.8 ± 1.2 g
- Final Lean Mass (male C57BL/6 mice [1]; NMR): 20.8 ± 0.3 g
- Skeletal muscle hypertrophy (male C57BL/6 mice [1]; conclusion from Table II): stimulated skeletal muscle hypertrophy
- Muscle fiber diameter (male C57BL/6 mice [1]; quadriceps, >4200 fibers per diet): 44.8 ± 0.2 μm
- Skeletal muscle fiber size (FIGS. 1A and 1B) (male C57BL/6 mice [2]): increased skeletal muscle fiber size
- Glucose tolerance test AUC relative to ursolic acid (FIG. 5) (male C57BL/6 mice [3]; 7 weeks, 6 h fast, P<0.05): significantly lower
- Grip strength relative to ursolic acid (male C57BL/6 mice [3]; P=0.05): significantly improved
- Glucose tolerance test area under the curve (AUC) (male C57BL/6 mice [4]): 31,383±1,869
- Fasting blood glucose (male C57BL/6 mice [5]): 140.6 ± 7.8 mg/dL
- Glucose tolerance test area under the curve (AUC) (male C57BL/6 mice [5]): 32,606±2,471
- Efficacy relative to ursolic acid (total cellular protein) (C2C12 myotubes): 3 fold
- Potency relative to ursolic acid (total cellular protein) (C2C12 myotubes): 3 fold
- Total cellular protein (FIG. 6) (C2C12 myotubes; normalized to vehicle-treated, dose-dependent): significantly increased
- Epididymal Fat Pad Wt (diet-induced obese mice): 1804.0 ± 161.5 mg
- Final % Fat (diet-induced obese mice): 31.8 ± 3.1 %
- Final % Lean (diet-induced obese mice): 55.3 ± 2.4 %
- Final Body Wt (diet-induced obese mice): 38.9 ± 1.2 g
- Final Fat Mass (diet-induced obese mice): 12.8 ± 1.4 g
- Final Lean Mass (diet-induced obese mice): 21.3 ± 0.6 g
- Retroperitoneal Fat Pad Wt (diet-induced obese mice): 731.8 ± 86.9 mg
- Obesity in diet-induced obese mice (diet-induced obese mice; conclusion from Table III): reduced obesity
- Blood Glucose (diet-induced obese mice; non-fasting): 177.7 ± 9.9 mg/dL
- Potency and efficacy compared with native ursolic acid and other ursolic acid salts (male C57BL/6 mice [6]; conclusion from Table I grip strength data): more potent and efficacious
- Grip Strength (% Change vs. Control) (male C57BL/6 mice [6]; standard chow supplemented, 6 weeks, doses molar-matched to 0.050% ursolic acid (0.048% for diethanolamine salt): 0.050% ursolic acid, 0.057% ethanolamine, 0.063% tris, 0.066% lysine, 0.060% diethanolamine, 0.059% morpholine, 0.059% piperazine salt, mean ± SEM, 12 mice): 11.3 ± 2.1 %
- Adipocyte size (FIGS. 2A and 2B) (male C57BL/6 mice [7]): decreased adipocyte size
- Epididymal Fat Pad Wt (male C57BL/6 mice [8]): 1713.8 ± 139.8 ^b mg
- Final % Fat (male C57BL/6 mice [8]): 31.4 ± 2.8 ^b %
- Final % Lean (male C57BL/6 mice [8]): 57.3 ± 2.1 ^b %
- Final Body Wt (male C57BL/6 mice [8]): 36.6 ± 0.9 ^b g
- Final Fat Mass (male C57BL/6 mice [8]): 11.6 ± 1.2 ^b g
- Final Lean Mass (male C57BL/6 mice [8]): 20.9 ± 0.7 ^a g
- Retroperitoneal Fat Pad Wt (male C57BL/6 mice [8]): 709.8 ± 72.2 ^b mg
- Skeletal Muscle Wt (mg/g Final Body Wt) (male C57BL/6 mice [8]; total dissected muscle weight normalized to final body weight): 29.1 ± 1.0 ^b mg/g Final Body Wt
